Measurements as given in US12102631B2, “Quinolylnitrones for the treatment and prevention of a cerebral stroke or ischaemia” (ISQUAEMIA BIOTECH, S.L., priority 2018, dated 2024).

How the values were obtained:
tMCAO in C57BL/6 mice [1] = details: 40 mg/kg; 48 h after treatment; earlier report of the group; cited from earlier work
tMCAO in C57BL/6 mice [2] = details: 40 mg/kg; data recently reported by the group; cited from earlier work
[3] = tested on: primary neuronal cultures subjected to OGD; assay: ROS formation in primary neuronal cultures after OGD; format: cell-based, rat; details: 2 h recovery after 4 h OGD; significant at 100 μM
Protocol: Measurement of the ROS formation. To detect the intracellular ROS formation a nonfluorescent and cell permeable reagent was used according to the supplier instructions (Sigma, MAK143). The reagent enters into the cells and reacts with ROS (especially superoxide and hydroxyl radicals) in the cytoplasm, resulting in a fluorometric product proportional to the amount of ROS present. The reagent was added to the cells at the moment that they were subjected to different treatments. After recovery period for 2 h, the fluorescence intensity was at 490 nm λex and 535 nm λem.
Exposure of neuronal cultures to 4 h OGD induced significant ROS generation after 2 h recovery in normoxic and normoglycemic conditions (R2 h) (210%, p<0.005 compared with 100% control) (FIG. 5A). […] ROS generation may induce lipid peroxidation and cell membrane damage. […] The decrease of ROS formation and lipid peroxidation were significant at 100 μM QN 23, in accordance with the concentration at which the QN 23 had the higher neuroprotective activity against experimental ischemia in neuronal cultures (FIG. 4 and Table 1).

| SMILES | improvement of grip strength (tMCAO in C57BL/6 mice [1]) | size of the ischemic lesion (in words) (tMCAO in C57BL/6 mice [2]) | ROS formation [3] |
| --- | --- | --- | --- |
| CC(C)(C)/[N+]([O-])=C/c1ccc(S(=O)(=O)O)cc1S(=O)(=O)O [Compound 2, sodium (Z)-4-((tert-butyloxidoazanylidene)methyl)benzene-1,3-disulfonate, reference compound] | 11.8% | did not reduce the size of the ischemic lesion |  |
| COc1ccc2nc(Cl)c(/C=[N+](\[O-])C(C)(C)C)cc2c1 [Compound 23, (Z)—N-tert-Butyl-1-(2-chloro-6-methoxyquinolin-3-yl)methanimine oxide] |  |  | significantly decreased to the control value |
